# Measurements reported in ChEMBL document CHEMBL3763028, “Anionic fluoroquinolones as antibacterials against biofilm-producing Pseudomonas aeruginosa” (2016).
# Tested on: Pseudomonas aeruginosa
# Assay: Antipseudomonal activity against Pseudomonas aeruginosa PAO1 in Pseudomonas isolation agar assessed as bacterial growth inhibition at 10 uM by disk diffusion assay
# Assay type: functional
# Details: read-out: DIZ
row,SMILES,zone of inhibition at 10 µM
1,COc1c(N2CCNC(C)C2)c(F)cc2c(=O)c(C(=O)O)cn(C3CC3)c12 (stereo not drawn),21 mm
2,CCCCN1CCN(c2cc3c(cc2F)c(=O)c(C(=O)O)cn3C2CC2)CC1,0 mm
3,C[C@H]1COc2c(C3(N)CC3)c(F)cc3c(=O)c(C(=O)O)cn1c23,17 mm
4,COc1c(N2CCN(C(C)=O)C(C)C2)c(F)cc2c(=O)c(C(=O)O)cn(C3CC3)c12 (stereo not drawn),0 mm
5,CC1(C)S[C@@H]2[C@H](NC(=O)[C@H](C(=O)O)c3ccsc3)C(=O)N2[C@H]1C(=O)O,0 mm
6,O=C(O)CCCC(=O)N1CCN(c2cc3c(cc2F)c(=O)c(C(=O)O)cn3C2CC2)CC1,0 mm
7,CCn1cc(C(=O)O)c(=O)c2cc(F)c(N3CCNC(C)C3)c(F)c21 (stereo not drawn),12 mm
8,COc1c(N2C[C@@H]3CCCN[C@@H]3C2)c(F)cc2c(=O)c(C(=O)O)cn(C3CC3)c12,10 mm
9,COC(=O)CCCN1CCN(c2cc3c(cc2F)c(=O)c(C(=O)O)cn3C2CC2)CC1,6 mm
10,COc1c(N2C[C@@H]3CCCN(C(C)=O)[C@@H]3C2)c(F)cc2c(=O)c(C(=O)O)cn(C3CC3)c12,0 mm
11,CC(=O)NC1(c2c(F)cc3c(=O)c(C(=O)O)cn4c3c2OC[C@@H]4C)CC1,0 mm
12,O=C(O)CCCN1CCN(c2cc3c(cc2F)c(=O)c(C(=O)O)cn3C2CC2)CC1,0 mm

# Tested on: Pseudomonas aeruginosa
# Assay: Antipseudomonal activity against Pseudomonas aeruginosa PAO1 in Luria-Bertani agar assessed as bacterial growth inhibition at 10 uM by disk diffusion assay
# Assay type: functional
# Details: read-out: DIZ
row,SMILES,zone of inhibition at 10 µM
1,COc1c(N2CCNC(C)C2)c(F)cc2c(=O)c(C(=O)O)cn(C3CC3)c12 (stereo not drawn),29 mm
2,CCCCN1CCN(c2cc3c(cc2F)c(=O)c(C(=O)O)cn3C2CC2)CC1,23 mm
3,C[C@H]1COc2c(C3(N)CC3)c(F)cc3c(=O)c(C(=O)O)cn1c23,25 mm
4,COc1c(N2CCN(C(C)=O)C(C)C2)c(F)cc2c(=O)c(C(=O)O)cn(C3CC3)c12 (stereo not drawn),0 mm
5,CC1(C)S[C@@H]2[C@H](NC(=O)[C@H](C(=O)O)c3ccsc3)C(=O)N2[C@H]1C(=O)O,0 mm
6,O=C(O)CCCC(=O)N1CCN(c2cc3c(cc2F)c(=O)c(C(=O)O)cn3C2CC2)CC1,0 mm
7,CCn1cc(C(=O)O)c(=O)c2cc(F)c(N3CCNC(C)C3)c(F)c21 (stereo not drawn),23 mm
8,COc1c(N2C[C@@H]3CCCN[C@@H]3C2)c(F)cc2c(=O)c(C(=O)O)cn(C3CC3)c12,24 mm
9,COC(=O)CCCN1CCN(c2cc3c(cc2F)c(=O)c(C(=O)O)cn3C2CC2)CC1,16 mm
10,COc1c(N2C[C@@H]3CCCN(C(C)=O)[C@@H]3C2)c(F)cc2c(=O)c(C(=O)O)cn(C3CC3)c12,0 mm
11,CC(=O)NC1(c2c(F)cc3c(=O)c(C(=O)O)cn4c3c2OC[C@@H]4C)CC1,0 mm
12,O=C(O)CCCN1CCN(c2cc3c(cc2F)c(=O)c(C(=O)O)cn3C2CC2)CC1,0 mm

# Tested on: Pseudomonas aeruginosa
# Assay: Antipseudomonal activity against Pseudomonas aeruginosa PAO581 in Luria-Bertani agar assessed as bacterial growth inhibition at 10 uM by disk diffusion assay
# Assay type: functional
# Details: read-out: DIZ
row,SMILES,zone of inhibition at 10 µM
1,COc1c(N2CCNC(C)C2)c(F)cc2c(=O)c(C(=O)O)cn(C3CC3)c12 (stereo not drawn),31 mm
2,CCCCN1CCN(c2cc3c(cc2F)c(=O)c(C(=O)O)cn3C2CC2)CC1,13 mm
3,C[C@H]1COc2c(C3(N)CC3)c(F)cc3c(=O)c(C(=O)O)cn1c23,30 mm
4,COc1c(N2CCN(C(C)=O)C(C)C2)c(F)cc2c(=O)c(C(=O)O)cn(C3CC3)c12 (stereo not drawn),0 mm
5,CC1(C)S[C@@H]2[C@H](NC(=O)[C@H](C(=O)O)c3ccsc3)C(=O)N2[C@H]1C(=O)O,0 mm
6,O=C(O)CCCC(=O)N1CCN(c2cc3c(cc2F)c(=O)c(C(=O)O)cn3C2CC2)CC1,0 mm
7,CCn1cc(C(=O)O)c(=O)c2cc(F)c(N3CCNC(C)C3)c(F)c21 (stereo not drawn),29 mm
8,COc1c(N2C[C@@H]3CCCN[C@@H]3C2)c(F)cc2c(=O)c(C(=O)O)cn(C3CC3)c12,31 mm
9,COC(=O)CCCN1CCN(c2cc3c(cc2F)c(=O)c(C(=O)O)cn3C2CC2)CC1,17 mm
10,COc1c(N2C[C@@H]3CCCN(C(C)=O)[C@@H]3C2)c(F)cc2c(=O)c(C(=O)O)cn(C3CC3)c12,0 mm
11,CC(=O)NC1(c2c(F)cc3c(=O)c(C(=O)O)cn4c3c2OC[C@@H]4C)CC1,0 mm
12,O=C(O)CCCN1CCN(c2cc3c(cc2F)c(=O)c(C(=O)O)cn3C2CC2)CC1,0 mm

# Tested on: Pseudomonas aeruginosa
# Assay: Antipseudomonal activity against Pseudomonas aeruginosa PAO581 in Pseudomonas isolation agar assessed as bacterial growth inhibition at 10 uM by disk diffusion assay
# Assay type: functional
# Details: read-out: DIZ
row,SMILES,zone of inhibition at 10 µM
1,COc1c(N2CCNC(C)C2)c(F)cc2c(=O)c(C(=O)O)cn(C3CC3)c12 (stereo not drawn),23 mm
2,CCCCN1CCN(c2cc3c(cc2F)c(=O)c(C(=O)O)cn3C2CC2)CC1,0 mm
3,C[C@H]1COc2c(C3(N)CC3)c(F)cc3c(=O)c(C(=O)O)cn1c23,20 mm
4,COc1c(N2CCN(C(C)=O)C(C)C2)c(F)cc2c(=O)c(C(=O)O)cn(C3CC3)c12 (stereo not drawn),0 mm
5,CC1(C)S[C@@H]2[C@H](NC(=O)[C@H](C(=O)O)c3ccsc3)C(=O)N2[C@H]1C(=O)O,0 mm
6,O=C(O)CCCC(=O)N1CCN(c2cc3c(cc2F)c(=O)c(C(=O)O)cn3C2CC2)CC1,0 mm
7,CCn1cc(C(=O)O)c(=O)c2cc(F)c(N3CCNC(C)C3)c(F)c21 (stereo not drawn),15 mm
8,COc1c(N2C[C@@H]3CCCN[C@@H]3C2)c(F)cc2c(=O)c(C(=O)O)cn(C3CC3)c12,14 mm
9,COC(=O)CCCN1CCN(c2cc3c(cc2F)c(=O)c(C(=O)O)cn3C2CC2)CC1,9 mm
10,COc1c(N2C[C@@H]3CCCN(C(C)=O)[C@@H]3C2)c(F)cc2c(=O)c(C(=O)O)cn(C3CC3)c12,0 mm
11,CC(=O)NC1(c2c(F)cc3c(=O)c(C(=O)O)cn4c3c2OC[C@@H]4C)CC1,0 mm
12,O=C(O)CCCN1CCN(c2cc3c(cc2F)c(=O)c(C(=O)O)cn3C2CC2)CC1,0 mm
